{"source": "patent US11185542B2", "about": "“Uses of dopamine beta-hydroxylase (DBH) inhibitors and serotonin receptor (5-HT) antagonists for the treatment of cancer” (Jiangsu Yahong Meditech Co., Ltd., priority 2016, dated 2021)", "key": {"[1]": {"tested_on": "H22 murine hepatic cancer xenograft", "experiment": "In vivo tumor growth, H22 murine hepatic cancer xenograft model (Example 4)", "parameters": "species or system Mouse (Mus Musculus)", "experimental": "(§1) Experiments using the murine H22, CT-26 and EMT-6 xenograft models were performed as described below.\n(§2) Cells were cultured in RPMI-1640 medium supplemented with 10% FBS at 37° C. in an atmosphere of 5% CO2 in air. The tumor cells were routinely subcultured three times weekly. The cells that grew in an exponential growth phase were harvested and counted for tumor inoculation.\n(§3) Mice (female, 6-8 weeks old) were inoculated subcutaneously at the right flank with the tumor cells (H22, EMT-6, or CT-26) in 0.1 mL PBS for tumor development. When the tumor volume reached approximately 60-80 mm^3, the mice were grouped randomly according to the animal body weight and tumor volume. Each group had 5-8 tumor-bearing mice.\n(§4) The major endpoint was to determine if tumor growth could be delayed or mice could be cured. Tumor volume was measured three times weekly in two dimensions using a caliper, and the volume was expressed in mm^3 using the formula: V=0.5 a×b^2, where a and b are the long and short diameters of the tumor, respectively. The T/C value (in percent) was an indication of antitumor effectiveness, where T and C were the mean volume of the treated and control groups, respectively, on a given day. The T-C value was calculated according to TV. T-C was calculated with T as the median time (in days) required for the treatment group tumors to reach a predetermined size (e.g., TV as 1000 mm^3), and C as the median time (in days) for the control group tumors to reach the same size. The body weights were measured and recorded at the same time to observe the toxicity of the compounds. The animals were sacrificed at the termination of the study.\n(§5) Summary statistics, including mean and the standard error of the mean (SEM), are provided for the tumor volume of each group at each time point. A two-way analysis of variance (ANOVA) was performed to compare body weight, tumor volume and tumor volume change. A one-way ANOVA was performed to compare tumor weight. All data were analyzed using GraphPad Prism 5. p<0.05 was considered to be statistically significant.\nThe anti-cancer activity of amperozide and nepicastat was evaluated in a H22 murine hepatic cancer xenograft model according to the experimental procedure described in Example 2. Anti-cancer activity was evaluated by measuring changes in tumor volume."}, "[2]": {"tested_on": "H22 murine hepatocarcinoma cell line", "experiment": "In vitro cell proliferation assay (CellTiter-Glo) in H22 murine hepatocarcinoma cell line", "format": "cell-based", "details": "for anti-proliferative effect on H22 cell line: 1 μM and 0.1, in words; for viability at 0.1 µM / viability at 1 µM: H22, 72 h; for viability at 0.1 µM: read-out: Cell viability (%), 0.1 μM, 72 h, H22 cells; for viability at 1 µM: read-out: Cell viability (%), 1 μM, 72 h, H22 cells", "experimental": "Methods: • (1) Cells were cultured in RPMI-1640 medium supplemented with 10% FBS, 100 U/ml penicillin, and […] streptomycin at 37° C. and 5% CO2 atmosphere. […] The anti-proliferative activity of amperozide, nepicastat, and paclitaxel was tested in the H22 murine hepatocarcinoma cell line according to the experimental procedure described in Example 1."}, "[3]": {"tested_on": "H22 murine hepatic cancer xenograft", "experiment": "In vivo tumor growth, H22 murine hepatic cancer xenograft model, compared with anti-PD-1 mAb (Example 5)", "parameters": "species or system Mouse (Mus Musculus)", "details": "p.o.; for Tumor Volume (mm^3): QD x 20 days; for T/C (%) / TGI (%) tumor growth inhibition: QD", "experimental": "as §1, §2, §3, §4, §5\nThe anti-cancer activity of nepicastat, etamicastat and anti-PD-1 monoclonal antibody (mAb) was evaluated in a H22 murine hepatic cancer xenograft model according to the experimental procedure described in Example 2."}, "[4]": {"details": "clinical dosage of amperozide 10 mg/day; read-out: plasma maximal concentration (Cmax); cited from earlier work"}}, "note": "pIC50: −log10 of the molar value."}
{"smiles": "CC(=O)O[C@H]1C(=O)[C@@]2(C)[C@H]([C@H](OC(=O)c3ccccc3)[C@]3(O)C[C@H](OC(=O)[C@H](O)[C@@H](NC(=O)c4ccccc4)c4ccccc4)C(C)=C1C3(C)C)[C@]1(OC(C)=O)CO[C@@H]1C[C@@H]2O", "note": "[Paclitaxel]", "values": [{"measurement": "T-C (days) (Reach 1000 mm^3)", "setting": "[1]; Paclitaxel 15 mg/kg", "value": 2, "unit": "days"}, {"measurement": "Tumor Volume", "setting": "[1]; Paclitaxel 15 mg/kg, day 5", "value": "80 ± 9", "unit": "mm^3"}, {"measurement": "Tumor Volume", "setting": "[1]; Paclitaxel 15 mg/kg, day 7", "value": "140 ± 17", "unit": "mm^3"}, {"measurement": "Tumor Volume", "setting": "[1]; Paclitaxel 15 mg/kg, day 9", "value": "270 ± 48", "unit": "mm^3"}, {"measurement": "Tumor Volume", "setting": "[1]; Paclitaxel 15 mg/kg, day 12", "value": "435 ± 60", "unit": "mm^3"}, {"measurement": "Tumor Volume", "setting": "[1]; Paclitaxel 15 mg/kg, day 14", "value": "722 ± 105", "unit": "mm^3"}, {"measurement": "Tumor Volume", "setting": "[1]; Paclitaxel 15 mg/kg, day 16", "value": "1,188 ± 206 mm^3"}, {"measurement": "T/C (%)", "setting": "[1]; Paclitaxel 15 mg/kg, day 19", "value": 65.5, "unit": "%"}, {"measurement": "TGI (%) tumor growth inhibition", "setting": "[1]; Paclitaxel 15 mg/kg, day 19", "value": 34.5, "unit": "%"}, {"measurement": "Tumor Volume", "setting": "[1]; Paclitaxel 15 mg/kg, day 19", "value": "1,982 ± 327 mm^3"}, {"measurement": "Tumor Volume", "setting": "[1]; Paclitaxel 15 mg/kg, day 19, listed as paclitaxel", "value": 1982, "unit": "mm^3"}, {"measurement": "anti-proliferative effect on H22 cell line", "setting": "[2]", "value": "strong inhibition effect"}, {"measurement": "viability at 0.1 µM", "setting": "[2]; Mus musculus", "value": 28.4, "unit": "%"}, {"measurement": "viability at 1 µM", "setting": "[2]; Mus musculus", "value": 20.8, "unit": "%"}]}
{"smiles": "NCCc1c[nH]c(=S)n1[C@H]1COc2c(F)cc(F)cc2C1", "note": "[Etamicastat, etamicastat]", "values": [{"measurement": "Tumor Volume (mm^3)", "setting": "[3]; Etamicastat 80 mg/kg, day 3", "value": "56.40 ± 4.21", "unit": "mm^3"}, {"measurement": "Tumor Volume (mm^3)", "setting": "[3]; Etamicastat 80 mg/kg, day 6", "value": "142.74 ± 14.75", "unit": "mm^3"}, {"measurement": "Tumor Volume (mm^3)", "setting": "[3]; Etamicastat 80 mg/kg, day 9", "value": "325.41 ± 39.55", "unit": "mm^3"}, {"measurement": "Tumor Volume (mm^3)", "setting": "[3]; Etamicastat 80 mg/kg, day 13", "value": "437.62 ± 48.77", "unit": "mm^3"}, {"measurement": "Tumor Volume (mm^3)", "setting": "[3]; Etamicastat 80 mg/kg, day 16", "value": "645.29 ± 50.41", "unit": "mm^3"}, {"measurement": "Tumor Volume (mm^3)", "setting": "[3]; Etamicastat 80 mg/kg, day 19", "value": "892.56 ± 131.83", "unit": "mm^3"}, {"measurement": "Tumor Volume (mm^3)", "setting": "[3]; Etamicastat 80 mg/kg, day 22", "value": "1210.52 ± 197.23", "unit": "mm^3"}, {"measurement": "Tumor Volume (mm^3)", "setting": "[3]; Etamicastat 80 mg/kg, day 22, listed as etamicastat", "value": "1,210.52 mm^3"}, {"measurement": "T/C (%)", "setting": "[3]; Etamicastat 80 mg/kg, day 22", "value": 70.42, "unit": "%"}, {"measurement": "TGI (%) tumor growth inhibition", "setting": "[3]; Etamicastat 80 mg/kg, day 22", "value": 29.58, "unit": "%"}, {"measurement": "Tumor Volume (mm^3)", "setting": "[3]; Etamicastat 160 mg/kg, day 3", "value": "56.42 ± 3.25", "unit": "mm^3"}, {"measurement": "Tumor Volume (mm^3)", "setting": "[3]; Etamicastat 160 mg/kg, day 6", "value": "134.64 ± 14.18", "unit": "mm^3"}, {"measurement": "Tumor Volume (mm^3)", "setting": "[3]; Etamicastat 160 mg/kg, day 9", "value": "270.71 ± 33.96", "unit": "mm^3"}, {"measurement": "Tumor Volume (mm^3)", "setting": "[3]; Etamicastat 160 mg/kg, day 13", "value": "513.74 ± 103.91", "unit": "mm^3"}, {"measurement": "Tumor Volume (mm^3)", "setting": "[3]; Etamicastat 160 mg/kg, day 16", "value": "825.29 ± 198.51", "unit": "mm^3"}, {"measurement": "Tumor Volume (mm^3)", "setting": "[3]; Etamicastat 160 mg/kg, day 19", "value": "1167.51 ± 300.84", "unit": "mm^3"}, {"measurement": "Tumor Volume (mm^3)", "setting": "[3]; Etamicastat 160 mg/kg, day 22", "value": "1309.12 ± 492.02", "unit": "mm^3"}, {"measurement": "Tumor Volume (mm^3)", "setting": "[3]; Etamicastat 160 mg/kg, day 22, listed as etamicastat", "value": "1,309.12 mm^3"}, {"measurement": "T/C (%)", "setting": "[3]; Etamicastat 160 mg/kg, day 22", "value": 76.16, "unit": "%"}, {"measurement": "TGI (%) tumor growth inhibition", "setting": "[3]; Etamicastat 160 mg/kg, day 22", "value": 23.84, "unit": "%"}]}
{"smiles": "CCNC(=O)N1CCN(CCCC(c2ccc(F)cc2)c2ccc(F)cc2)CC1", "note": "[Amperozide, amperozide]", "values": [{"measurement": "T-C (days) (Reach 1000 mm^3)", "setting": "[1]; Amperozide 2 mg/kg", "value": 2, "unit": "days"}, {"measurement": "Tumor Volume", "setting": "[1]; Amperozide 2 mg/kg, day 5", "value": "80 ± 9", "unit": "mm^3"}, {"measurement": "Tumor Volume", "setting": "[1]; Amperozide 2 mg/kg, day 7", "value": "166 ± 19", "unit": "mm^3"}, {"measurement": "Tumor Volume", "setting": "[1]; Amperozide 2 mg/kg, day 9", "value": "355 ± 36", "unit": "mm^3"}, {"measurement": "Tumor Volume", "setting": "[1]; Amperozide 2 mg/kg, day 12", "value": "576 ± 48", "unit": "mm^3"}, {"measurement": "Tumor Volume", "setting": "[1]; Amperozide 2 mg/kg, day 14", "value": "806 ± 31", "unit": "mm^3"}, {"measurement": "Tumor Volume", "setting": "[1]; Amperozide 2 mg/kg, day 16", "value": "1,219 ± 39 mm^3"}, {"measurement": "T/C (%)", "setting": "[1]; Amperozide 2 mg/kg, day 19", "value": 64.4, "unit": "%"}, {"measurement": "TGI (%) tumor growth inhibition", "setting": "[1]; Amperozide 2 mg/kg, day 19", "value": 35.6, "unit": "%"}, {"measurement": "Tumor Volume", "setting": "[1]; Amperozide 2 mg/kg, day 19", "value": "1,948 ± 158 mm^3"}, {"measurement": "Tumor Volume", "setting": "[1]; Amperozide 2 mg/kg, day 19, listed as amperozide", "value": 1948, "unit": "mm^3"}, {"measurement": "T-C (days) (Reach 1000 mm^3)", "setting": "[1]; Amperozide 6 mg/kg", "value": 1, "unit": "days"}, {"measurement": "Tumor Volume", "setting": "[1]; Amperozide 6 mg/kg, day 5", "value": "80 ± 9", "unit": "mm^3"}, {"measurement": "Tumor Volume", "setting": "[1]; Amperozide 6 mg/kg, day 7", "value": "174 ± 26", "unit": "mm^3"}, {"measurement": "Tumor Volume", "setting": "[1]; Amperozide 6 mg/kg, day 9", "value": "367 ± 51", "unit": "mm^3"}, {"measurement": "Tumor Volume", "setting": "[1]; Amperozide 6 mg/kg, day 12", "value": "602 ± 77", "unit": "mm^3"}, {"measurement": "Tumor Volume", "setting": "[1]; Amperozide 6 mg/kg, day 14", "value": "1,004 ± 75 mm^3"}, {"measurement": "Tumor Volume", "setting": "[1]; Amperozide 6 mg/kg, day 16", "value": "1,625 ± 101 mm^3"}, {"measurement": "T/C (%)", "setting": "[1]; Amperozide 6 mg/kg, day 19", "value": 95.9, "unit": "%"}, {"measurement": "TGI (%) tumor growth inhibition", "setting": "[1]; Amperozide 6 mg/kg, day 19", "value": 4.1, "unit": "%"}, {"measurement": "Tumor Volume", "setting": "[1]; Amperozide 6 mg/kg, day 19", "value": "2,903 ± 315 mm^3"}, {"measurement": "anti-proliferative effect on H22 cell line", "setting": "[2]", "value": "did not show any significant anti-proliferative effects"}, {"measurement": "viability at 0.1 µM", "setting": "[2]; Mus musculus", "value": 100, "unit": "%"}, {"measurement": "viability at 1 µM", "setting": "[2]; Mus musculus", "value": 95.1, "unit": "%"}, {"measurement": "pIC50", "setting": "[2]; Mus musculus, calculated from FIG. 1, read-out: IC50 in H22 murine hepatocarcinoma cells proliferation", "value": 4.41}, {"measurement": "Cmax", "setting": "[4]", "value": "~100", "unit": "nM"}]}
